Values joined by “and” are separate entries in the source; they are usually repeats but may differ in a detail not shown here. Equal values may be shown once. “Also recorded” adds a separate entry of the source.
Columns and labels:
Format in all cases: physicochemical
[1] = Competitive slurry and slurry stability experiments; conditions: acetone/water, water contents 5% vol. and higher, room temperature and 45° C.
Experimental: Form B was obtained at room temperature while form C was obtained at 45° C. in acetone alone.
The HBr salt was largely insoluble in various buffers when 1 mg/mL slurries were prepared and the mother liquor concentration determined (by HPLC): <0.05 mg/mL in all buffers tested.

[2] = Storage at controlled relative humidities (Form K / Form K′)
Source text: It was noticed that after Form K was dried, the XRPD peaks of Form K shifted to a higher value and the resulting XRPD pattern is called Form K′. To further understand the relationships between the two forms, free base Form K and Form K′ were placed on XRPD sample holders and stored in a closed Jars with saturated salt solutions for RH controls at ambient temperature, respectively. […] The XRPD diffractograms of the samples after 2-day storage are presented in FIG. 132 and FIG. 133, respectively. […] Since the peaks of Form K shifted to higher 2-theta value as Form K loses water molecules to Form K′, Form K and Form K′ are on a continuum.

[3] = Solid state stability under accelerated storage conditions
How it was run: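 Solid forms stored at 60 °C and 60 °C/75% RH (Form A 1 week, Form B 2 weeks); Form K held 14 d at 40 °C, 40 °C/75% RH, 60 °C, 60 °C/75% RH and light, versus refrigerated/ambient. Assessed by DSC/TGA, appearance, HPLC purity, chiral HPLC (S-isomer area %) and XRPD post-DVS.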

[4] = Mechanical stressing (grinding, compression); conditions: compressed under 2000 psi for 1 minute
Experimental: Mechanical stressing experiment: the following table describes three experiments involving mechanical stressing of Form A and/or Form B of free base Compound 1 by grinding with a mortar and pestle.
Shear Sensitivity: Form K was compressed under 2000 psi for 1 minute and analyzed by XRPD.

[5] = Dynamic vapor sorption / hygroscopicity
How it was run: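 Sample equilibrated at 50% r.h. on a microbalance, then one cycle at ±5% r.h. h^−1 spanning 0–95% r.h., with 5 h holds at 0% and 95% r.h. and 2 h holds at 50% r.h., run either desorption-first or sorption-first. Hygroscopicity classed from mass gain at 85% r.h. relative to initial mass.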

[6] = Solubility of polymorphic forms in physiologically relevant media and final pH
Source text: Solubility data of the several polymorphic forms of Compound 1 in physiologically relevant media and the final pH of these solutions are summarized in the following tables.

N#Cc1ccc(N2CCN(Cc3ccc(COc4cccc5c4CN([C@H]4CCC(=O)NC4=O)C5=O)cc3)CC2)c(F)c1.O [Form K of a free base of Compound 1]
competitive slurry of Form B, Form C and Form K [1]: most stable form
form conversion on storage (XRPD) ([2]; 11% RH, ambient temperature): converts to K′
critical water activity range for interconversion of Form K and Form K′ ([2]; aH2O): 0.11-0.22 and 0.11-0.17
PXRD result after storage ([2]; stored at 17% r.h. and r.t. for 5.5 d): Form K
Physical stability (DSC, PXRD, TGA) ([3]; 14 d at 40° C., 40° C./75% RH, 60° C., 60° C./75% RH, light chamber): there does not appear to be any major change in the crystal form and water content
physical and chemical stability ([3]; accelerated stability conditions): chemically and physically stable; also recorded: physically and chemically stable
Solid state chiral stability ([3]; accelerated stability conditions, initial 97.1 area % S-isomer): no change in the chiral stability
Solid state chemical stability (HPLC) ([3]; accelerated storage conditions, 14 d): no significant degradation was observed
Solid state chemical stability (HPLC), light ([3]; exposed to light (1.2 million lux)): Minor degradation
Shear Sensitivity (XRPD) [4]: remained as Form K
plateau in water uptake ([5]; DVS sorption, corresponding to ~1 mole of water): ~3.2 % w/w
hygroscopicity ([5]; DVS, class by mass gain at 85% r.h.): slightly hygroscopic (slightly hygroscopic (mass increase of <2% but ≥0.2%))
solid form after DVS cycle ([5]; after the DVS humidity cycle): stable with respect to application of a DVS cycle
DVS mass increase ([5]; relative humidity from about 5% to about 95%): about 3.2%
Solubility ([6]; FaSSIF): 1 µg/mL
Solubility ([6]; FeSSiF): 5 µg/mL
Solubility ([6]; SGF with pepsin): 420 µg/mL
Solubility ([6]; Water): <LOQ
Solubility ([6]; pH 1 buffer HC1/NaC1): 133 µg/mL
Solubility ([6]; pH 3 buffer (phosphate)): 90 µg/mL
Solubility ([6]; pH 4 buffer (acetate)): 11 µg/mL
Solubility ([6]; pH 5 buffer (acetate)): 1 µg/mL
Final pH ([6]; solubility sample in FaSSIF): 6.33
Final pH ([6]; solubility sample in FeSSiF): 5.02
Final pH ([6]; solubility sample in SGF with pepsin): 1.47
Final pH ([6]; solubility sample in Water): 6.71
Final pH ([6]; solubility sample in pH 1 buffer HC1/NaC1): 1.20
Final pH ([6]; solubility sample in pH 3 buffer (phosphate)): 3.09
Final pH ([6]; solubility sample in pH 4 buffer (acetate)): 3.98
Final pH ([6]; solubility sample in pH 5 buffer (acetate)): 5.01
